{"source": "patent US7326731B2", "about": "“Muscarinic agonists” (Eli Lilly and Company, priority 2002, dated 2008)", "tested_on": "Male Sprague-Dawley rats", "settings": "six-hour delay", "note": "Where two headings read alike, the source gives them in different places."}
{"smiles": "Nc1c2c(nc3ccccc13)CCCC2", "note": "[Tacrine, tacrine]", "values": [{"measurement": "retention in the eight arm radial maze", "setting": "3 mg/kg s.c. immediately after the sampling phase", "value": "not"}, {"measurement": "retention in the eight arm radial maze", "setting": "10 mg/kg s.c. immediately after the sampling phase", "value": "significantly improved retention"}]}
